# Measurements reported in PubChem BioAssay AID1918939 (Molecular Pharmacology Branch, DTP, NCI, 2023).
# Tested on: 653999-131-R-J2-PDC complex spheroid viability
# Assay: Anticancer human tumor 653999-131-R-J2-PDC patient-derived lung adenocarcinoma cell line growth inhibition
# Conditions: for IC50: curve of first compound; for viability, T/C: stronger effect = lower value
# In short: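 Multicellular complex spheroids of tumor cells with human endothelial cells (HUVEC) and mesenchymal stem cells; the LSD1 inhibitor iadademstat was combined with standard-of-care or investigational agents. Top concentration at or near clinical Cmax, half-log dilutions; final DMSO ≤0.25%.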
# [1] = second compound 0.1 µM, first compound 0.000949 µM
# [2] = second compound 0.1 µM, first compound 0.003 µM
# [3] = second compound 0.1 µM, first compound 0.00949 µM
# [4] = second compound 0.1 µM, first compound 0.03 µM
# [5] = second compound 0.1 µM, first compound 0.0949 µM
# [6] = second compound 0.1 µM, first compound 0.3 µM
# [7] = second compound 0.316 µM, first compound 0.000949 µM
# [8] = second compound 0.316 µM, first compound 0.003 µM
# [9] = second compound 0.316 µM, first compound 0.00949 µM
# [10] = second compound 0.316 µM, first compound 0.03 µM
# [11] = second compound 0.316 µM, first compound 0.0949 µM
# [12] = second compound 0.316 µM, first compound 0.3 µM
# [13] = second compound 1 µM, first compound 0.000949 µM
# [14] = second compound 1 µM, first compound 0.003 µM
# [15] = second compound 1 µM, first compound 0.00949 µM
# [16] = second compound 1 µM, first compound 0.03 µM
# [17] = second compound 1 µM, first compound 0.0949 µM
# [18] = second compound 1 µM, first compound 0.3 µM
# [19] = second compound 3.16 µM, first compound 0.000949 µM
# [20] = second compound 3.16 µM, first compound 0.003 µM
# [21] = second compound 3.16 µM, first compound 0.00949 µM
# [22] = second compound 3.16 µM, first compound 0.03 µM
# [23] = second compound 3.16 µM, first compound 0.0949 µM
# [24] = second compound 3.16 µM, first compound 0.3 µM
# [25] = second compound 10 µM, first compound 0.000949 µM
# [26] = second compound 10 µM, first compound 0.003 µM
# [27] = second compound 10 µM, first compound 0.00949 µM
# [28] = second compound 10 µM, first compound 0.03 µM
# [29] = second compound 10 µM, first compound 0.0949 µM
# [30] = second compound 10 µM, first compound 0.3 µM
# 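Further: spheroids exposed to agents for seven days before readout.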
smiles,measurement,setting,value
CCc1c2c(nc3ccc(O)cc13)-c1cc3c(c(=O)n1C2)COC(=O)[C@]3(O)CC + NC1CCC(NC2CC2c2ccccc2)CC1,IC50,second compound 0.1 µM,< 0.949 nM
same,IC50,second compound 0.316 µM,< 0.949 nM
same,IC50,second compound 1 µM,< 0.949 nM
same,IC50,second compound 3.16 µM,< 0.949 nM
same,IC50,second compound 10 µM,< 0.949 nM
same,"viability, T/C",[1],22%
same,"viability, T/C",[2],13.8%
same,"viability, T/C",[3],11.8%
same,"viability, T/C",[4],7.96%
same,"viability, T/C",[5],5.01%
same,"viability, T/C",[6],5%
same,"viability, T/C",[7],19.8%
same,"viability, T/C",[8],15.9%
same,"viability, T/C",[9],9.62%
same,"viability, T/C",[10],7.91%
same,"viability, T/C",[11],3.58%
same,"viability, T/C",[12],6.63%
same,"viability, T/C",[13],21.6%
same,"viability, T/C",[14],15.2%
same,"viability, T/C",[15],9.88%
same,"viability, T/C",[16],7.86%
same,"viability, T/C",[17],4.29%
same,"viability, T/C",[18],4.06%
same,"viability, T/C",[19],22.2%
same,"viability, T/C",[20],17.5%
same,"viability, T/C",[21],12.6%
same,"viability, T/C",[22],7.56%
same,"viability, T/C",[23],4.32%
same,"viability, T/C",[24],3.82%
same,"viability, T/C",[25],25.5%
same,"viability, T/C",[26],15.8%
same,"viability, T/C",[27],9.94%
same,"viability, T/C",[28],6.03%
same,"viability, T/C",[29],2.71%
same,"viability, T/C",[30],2.44%
Nc1ccn(C2OC(CO)C(O)C2(F)F)c(=O)n1 (stereo not given) + NC1CCC(NC2CC2c2ccccc2)CC1,IC50,second compound 0.1 µM,8.36 nM
same,IC50,second compound 0.316 µM,2.64 nM
same,IC50,second compound 1 µM,7.34 nM
same,IC50,second compound 3.16 µM,6.64 nM
same,IC50,second compound 10 µM,23 nM
same,"viability, T/C",[1],64.2%
same,"viability, T/C",[2],62.6%
same,"viability, T/C",[3],46.7%
same,"viability, T/C",[4],38.7%
same,"viability, T/C",[5],34.5%
same,"viability, T/C",[6],30.1%
same,"viability, T/C",[7],58.4%
same,"viability, T/C",[8],45.5%
same,"viability, T/C",[9],47.8%
same,"viability, T/C",[10],30.8%
same,"viability, T/C",[11],30.6%
same,"viability, T/C",[12],27.3%
same,"viability, T/C",[13],56%
same,"viability, T/C",[14],55.8%
same,"viability, T/C",[15],48.4%
same,"viability, T/C",[16],36.6%
same,"viability, T/C",[17],34.8%
same,"viability, T/C",[18],31.3%
same,"viability, T/C",[19],70.5%
same,"viability, T/C",[20],52.2%
same,"viability, T/C",[21],47.5%
same,"viability, T/C",[22],45%
same,"viability, T/C",[23],34.8%
same,"viability, T/C",[24],33.1%
same,"viability, T/C",[25],65.2%
same,"viability, T/C",[26],64.7%
same,"viability, T/C",[27],59%
same,"viability, T/C",[28],47.8%
same,"viability, T/C",[29],40.4%
same,"viability, T/C",[30],43.8%
